Experiments:
Type in all cases: physicochemical
[1] = Solubility of stabilizer in water/ethanol mixture as found in perfumes (appearance); conditions: 0.1 wt. % stabilizer in water/ethanol (96%) 53.9/46 wt. %
Description: An often occurring problem in the stabilization of colorants, dyes, fragrances and active ingredients is the solubility respectively the crystallization of the stabilizer/stabilizing composition in the final product form.

[2] = Color stabilization in green liquid soap, irradiated with 100 MED, visual PANTONE color; conditions: irradiated 100 MED
Procedure: (§1) Basic formulation of the liquid soap:
(§2) The liquid soaps containing different colorants were irradiated with 100 MED and the color was determined visually according to Tints; PANTONE Color Tint Selector, The PANTONE Library of Color.
Green liquid soap colored with 0.9 ppm Green vent W 7003 (CI 61570)

[3] = Color stabilization in violet liquid soap, irradiated with 100 MED, visual PANTONE color; conditions: irradiated 100 MED
Procedure: as §1, §2

[4] = Color stabilization in blue liquid soap, irradiated with 100 MED, visual PANTONE color; conditions: irradiated 100 MED
Procedure: as §1, §2
Blue liquid soap colored with FD&C Blue 1 W 092 (CI 42090)

[5] = 0.1 wt. % stabilizer, blank non irradiated 70% Tint

With O=C(c1ccc(O)cc1O)c1ccc(O)cc1O [Benzophenon-2] the Appearance [1] was “Precipitate”.
With COc1ccc(C(=O)c2ccccc2)c(O)c1 [Benzophenon-3] the Appearance [1] was “Turbid”.
For COc1cc(O)c(C(=O)c2ccccc2)cc1S(=O)(=O)O [Benzophenone-4, benzophenone-4], the “Index (PANTONE tint)” value [2, 5] was 70% Tint and the “Color (PANTONE)” value ([2]; 0.9 ppm Green vent W 7003, 0.1 wt. % stabilizer, blank non irradiated Pantone 367C) was “Pantone 367C”.
With O=C(c1ccccc1)c1ccc(O)cc1O [Benzophenone-1, benzophenone-1] the “Index (PANTONE tint)” value [3, 5] was 30% Tint, the “Color (PANTONE)” value ([3]; 3.1 ppm Vert Turquise W 7003 and 0.5 ppm FD&C Red 40WO93, 0.1 wt. % stabilizer, blank non irradiated Pantone 494C) was “Pantone 495C” and the “Index (PANTONE tint)” value ([4]; 0.1 wt. % stabilizer, blank non irradiated 50% Tint) was 50% Tint. For the same compound, the “Color (PANTONE)” value ([4]; FD&C Blue 1 W 092, 0.1 wt. % stabilizer, blank non irradiated Pantone 3125C) was “Pantone 3125C”.

Source: patent publication US8207108B2, “Stabilizing composition” (DSM IP Assets B.V., priority 2005, dated 2012)
